Like-named read-outs stand apart in the source and are kept apart here.
How the values were obtained:
[1] = system: Puccinia recondita f. sp. tritici; experiment: Test K: wheat leaf rust, preventive spray on wheat seedlings; conditions: for Test K disease control rating: 200 ppm, 100 = 100% disease control, 0 = no control
[2] = system: Erysiphe graminis f. sp. tritici; experiment: Test L: wheat powdery mildew, preventive spray on wheat seedlings; conditions: for Test L disease control rating: 200 ppm
Septoria tritici = experiment: Test J: wheat leaf blotch, preventive spray on wheat seedlings; assay type: in vivo
Description: A dash (-) indicates no test results.

Phytophthora infestans = experiment: whole plant or invertebrate; assay type: in vivo; conditions: for pest or weed control at 200 ppm: Phytophthora infestans, in Solanum lycopersicum, topical, 144 h, read-out: Test F disease control rating; for Test F disease control rating: 200 ppm, 100 = 100% disease control, 0 = no control
Botrytis cinerea = experiment: Test E: tomato botrytis, preventive spray on tomato seedlings; conditions: for Test E disease control rating: 200 ppm, 100 = 100% disease control, 0 = no control
Rhizoctonia oryzae = experiment: Test G: turf brown patch, preventive spray on creeping bent grass seedlings; conditions: for Test G disease control rating: 200 ppm
Description: (the causal agent of turf brown patch) and incubated in a saturated atmosphere at 27° C. for 24 h, and then moved to a growth chamber at 27° C. for 5 days, after which disease ratings were made.

fusarium graminearium = experiment: Test I: wheat head scab, preventive spray on wheat seedlings; conditions: for pest or weed control at 200 ppm: read-out: Test I disease control rating, 200 ppm; for Test I disease control rating: 200 ppm
Description: (the causal agent of wheat head scab) and incubated in a saturated atmosphere at 20° C. for 72 h, and then moved to a growth chamber at 22° C. for 5 days, after which disease ratings were made.

Septoria nodorum = experiment: Test H: wheat glum blotch, preventive spray on wheat seedlings; conditions: for Test H disease control rating: 200 ppm
Description: (the causal agent of wheat glum blotch) and incubated in a saturated atmosphere at 20° C. for 48 h, and then moved to a growth chamber at 22° C. for 5 days, after which disease ratings were made.

[3] = system: Colletotrichum orbiculare; experiment: Test B: cucumber Colletotrichum anthracnose, preventive spray on cucumber seedlings; conditions: for Test B disease control rating: 200 ppm
Plasmopara viticola = experiment: Test D: grape downy mildew, spray after inoculation of grape seedlings; assay type: in vivo; conditions: for pest or weed control at 200 ppm / Test D disease control rating: 200 ppm
Description: Upon removal, disease ratings were made. […] A dash (-) indicates no test results.

Pythium aphanidermatum = experiment: Test A: bluegrass pythium blight, preventive spray on bluegrass seedlings; conditions: for Test A disease control rating: 200 ppm, 100 = 100% disease control, 0 = no control
Sclerotinia sclerotiorum = experiment: Test C: cucumber white mold, preventive spray on cucumber seedlings; conditions: 200 ppm; 100 = 100% disease control, 0 = no control
[4] = Puccinia recondita, in Triticum aestivum, 192 h, read-out: Test K disease control rating
[5] = Botrytis cinerea, in Solanum lycopersicum, topical, 72 h, read-out: Test E disease control rating
[6] = Pythium aphanidermatum, 120 h, read-out: Test A disease control rating
[7] = 100 = 100% disease control, 0 = no control
[8] = 200 ppm, 100 = 100% disease control, 0 = no control

| SMILES | Test C disease control rating (Sclerotinia sclerotiorum) | Test K disease control rating [1] | Test L disease control rating [2, 7] | Test J disease control rating (Septoria tritici; [8]) | Test F disease control rating (Phytophthora infestans) | Test E disease control rating (Botrytis cinerea) | Test G disease control rating (Rhizoctonia oryzae; [7]) | Test I disease control rating (fusarium graminearium; [7]) | Test H disease control rating (Septoria nodorum; [7]) | Test B disease control rating [3, 7] | Test D disease control rating (Plasmopara viticola; [7]) | Test A disease control rating (Pythium aphanidermatum) | other results |
| --- | --- | --- | --- | --- | --- | --- | --- | --- | --- | --- | --- | --- | --- |
| Cc1nc(-n2cccn2)c(=O)n(CC(C)C)c1-c1c(F)cccc1F [Compound 149, 5-Methyl-6-(2,6-difluorophenyl)-1-(2-methylpropyl)-3-(1H-pyrazol-1-yl)-2(1H)-pyrazinone] | – | – | – | – | – | – | – | – | – | – | – | – | pest or weed control at 40 ppm [1, 4]: 100%; pest or weed control at 40 ppm ([2]; Blumeria graminis, in Triticum aestivum, 168 h, read-out: Test L disease control rating, 40 ppm (*)): 100%; pest or weed control at 40 ppm (Septoria tritici; Zymoseptoria tritici, 528 h, 40 ppm (*), read-out: Test J disease control rating): 100%; pest or weed control at 200 ppm (Phytophthora infestans): 0%; melting point: 105 to 106 °C; pest or weed control at 40 ppm (Botrytis cinerea; [5]): 100%; pest or weed control at 40 ppm (Rhizoctonia oryzae; Waitea circinata, in Agrostis stolonifera, topical, 144 h, read-out: Test G disease control rating, 40 ppm (*)): 99%; pest or weed control at 200 ppm (fusarium graminearium; Fusarium, in Triticum aestivum, topical, 192 h): 0%; pest or weed control at 40 ppm (Septoria nodorum; Parastagonospora nodorum, in Triticum aestivum, topical, 168 h, read-out: Test H disease control rating, 40 ppm (*)): 98%; pest or weed control at 40 ppm ([3]; Colletotrichum orbiculare, in Cucumis sativus, 144 h, read-out: Test B disease control rating, 40 ppm (*)): 0%; pest or weed control at 200 ppm (Plasmopara viticola; Plasmopara viticola, 168 h, read-out: Test D disease control rating): 0%; pest or weed control at 200 ppm (Pythium aphanidermatum; [6]): 0% |
| O=c1c(-n2cccn2)nc(Cl)c(-c2c(F)ccc(F)c2F)n1-c1ccccc1 [Compound 357, 5-Chloro-1-phenyl-3-(1H-pyrazol-1-yl)-6-(2,3,6-trifluorophenyl)-2(1H)-pyrazinone] | – | – | – | – | – | – | – | – | – | – | – | – | pest or weed control at 40 ppm [1, 4]: 99%; pest or weed control at 40 ppm ([2]; Blumeria graminis, in Triticum aestivum, 168 h, read-out: Test L disease control rating, 40 ppm (marked *), 100 = 100% disease control, 0 = no control): 20%; pest or weed control at 40 ppm (Septoria tritici; Zymoseptoria tritici, 528 h, 40 ppm (marked *), 100 = 100% disease control, 0 = no control, read-out: Test J disease control rating): 91%; melting point: 250 to 260 °C; pest or weed control at 40 ppm (Botrytis cinerea; [5]): 99%; pest or weed control at 40 ppm (Rhizoctonia oryzae; Waitea circinata, in Agrostis stolonifera, topical, 144 h, read-out: Test G disease control rating, 40 ppm (marked *), 100 = 100% disease control, 0 = no control): 84%; pest or weed control at 40 ppm (fusarium graminearium; Fusarium, in Triticum aestivum, topical, 192 h, read-out: Test I disease control rating, 40 ppm (marked *), 100 = 100% disease control, 0 = no control): 91%; pest or weed control at 40 ppm (Septoria nodorum; Parastagonospora nodorum, in Triticum aestivum, topical, 168 h, read-out: Test H disease control rating, 40 ppm (marked *), 100 = 100% disease control, 0 = no control): 98%; pest or weed control at 40 ppm ([3]; Colletotrichum orbiculare, in Cucumis sativus, 144 h, read-out: Test B disease control rating, 40 ppm (marked *), 100 = 100% disease control, 0 = no control): 83%; pest or weed control at 40 ppm (Plasmopara viticola; Plasmopara viticola, 168 h, 40 ppm (marked *), 100 = 100% disease control, 0 = no control, read-out: Test D disease control rating): 0%; pest or weed control at 40 ppm (Pythium aphanidermatum; [6]): 0% |
| CCC(C)Cn1c(-c2ccc(F)cc2F)c(C)nc(C#N)c1=N (centres unmarked) [Compound 426, 5-(2,4-Difluorophenyl)-3,4-dihydro-3-imino-6-methyl-4-(2-methylbutyl)pyrazinecarbonitrile] | – | – | – | – | – | – | – | – | – | – | – | – | pest or weed control at 200 ppm [1, 4]: 0%; pest or weed control at 200 ppm ([2]; Blumeria graminis, in Triticum aestivum, 168 h, read-out: Test L disease control rating, 200 ppm, 100 = 100% disease control, 0 = no control relative to controls): 80%; pest or weed control at 200 ppm (Septoria tritici; Zymoseptoria tritici, 528 h, 200 ppm, 100 = 100% disease control, 0 = no control relative to controls, read-out: Test J disease control rating): 0%; pest or weed control at 200 ppm (Phytophthora infestans): 0%; melting point: 73 to 77 °C; pest or weed control at 200 ppm (Botrytis cinerea; [5]): 0%; pest or weed control at 200 ppm (Rhizoctonia oryzae; Waitea circinata, in Agrostis stolonifera, topical, 144 h, read-out: Test G disease control rating, 200 ppm, 100 = 100% disease control, 0 = no control relative to controls): 0%; pest or weed control at 200 ppm (fusarium graminearium; Fusarium, in Triticum aestivum, topical, 192 h, 100 = 100% disease control, 0 = no control relative to controls): 0%; pest or weed control at 200 ppm (Septoria nodorum; Parastagonospora nodorum, in Triticum aestivum, topical, 168 h, read-out: Test H disease control rating, 200 ppm, 100 = 100% disease control, 0 = no control relative to controls): 0%; pest or weed control at 200 ppm ([3]; Colletotrichum orbiculare, in Cucumis sativus, 144 h, read-out: Test B disease control rating, 200 ppm, 100 = 100% disease control, 0 = no control relative to controls): 0%; pest or weed control at 200 ppm (Plasmopara viticola; Plasmopara viticola, 168 h, 100 = 100% disease control, 0 = no control relative to controls, read-out: Test D disease control rating): 0%; pest or weed control at 200 ppm (Pythium aphanidermatum; [6]): 82% |
| CC(C)Cn1c(C2CCCCC2)c(Cl)nc(-n2cccn2)c1=O [compound 291] | 0% | 88% | 71% | 100% | 0% | 97% | 0% | 0% | 0% | 0% | 33% | 0% | – |
| CC(C)Cc1c(Cl)nc(-n2cccn2)c(=O)n1CC(C)C [compound 292] | 0% | 27% | 74% | 38% | 0% | 0% | 0% | 0% | 0% | 0% | 0% | 0% | – |
| Cc1ccn(-c2nc(Cl)c(C3CCCC3)n(CC(C)C)c2=O)n1 [compound 293] | 0% | 88% | 0% | 97% | 0% | 95% | 0% | 0% | 0% | 0% | 0% | 0% | – |
| Cc1ccn(-c2nc(Cl)c(C3CCCCC3)n(CC(C)C)c2=O)n1 [compound 294] | 0% | 54% | 0% | 95% | 0% | 31% | 0% | 0% | 0% | 0% | 0% | 0% | – |
| Cc1ccn(-c2nc(Cl)c(CC(C)C)n(CC(C)C)c2=O)n1 [compound 295] | 0% | 27% | 0% | 53% | 0% | 0% | 0% | 0% | 0% | 0% | 0% | 0% | – |
| CCC(C)Cn1c(-c2c(F)cccc2F)c(Cl)nc(C(=O)NC(C)C)c1=O (centres unmarked) [compound 296] | 85% | 100% | 93% | 100% | 0% | 100% | 0% | 0% | 100% | 93% | 53% | 0% | – |
| CCC(C)Cn1c(-c2c(F)cccc2F)c(Cl)nc(C(=O)NCC2CC2)c1=O (centres unmarked) [compound 300] | 0% | 100% | 97% | 100% | 0% | 100% | 16% | 0% | 99% | 93% | 40% | 0% | – |
| CCC(C)CNC(=O)c1nc(Cl)c(-c2c(F)cccc2F)n(CC(C)CC)c1=O (centres unmarked) [compound 301] | 0% | 99% | 68% | 98% | 0% | 100% | 0% | 0% | 87% | 0% | 0% | 0% | – |

Reference: patent US20080194585A1, “Fungicidal Pyrazine Derivatives” (priority 2005, published 2008)
